# Test system: strain G009
# Experiment: Lipase inhibition test: prevention of TAG degradation in cultivation of strain G009
# Format: cell-based, Streptomyces albus
# Settings: G009, waste medium
# Procedure: Also g/l values of TAGs were estimated by image analysis using Image J program. The standard curve was prepared using concentration scale from 1 g/l up to 40 g/l and the titre of lipids in the culture broth was measured against the standard curve. The whole culture broth (solid stage cultivations) or separated mycelia was extracted with an equal volume of chloroform-methanol (Clf-MeOH; 2:1). Tubes were incubated in a shaker at RT for 1 hour. After centrifugation sample was taken from the extract and analysed by TLC and/or by GC. Dry extract weight was determined by drying 1-5 ml of extract at RT for one day in air blow after which mass was determined by weighing. The mass was given as grams per 1 liter of the culture broth. The spores of the strain […] were cultivated in the medium containing the following raw materials in 1 L of tap water, pH 7: Dextrose 75 20 g, Bagasse 20 g, Biowaste from bakery and garden (1:1) 5 or 10 g, Algae 25 to 50 g, MgSO4.7 H2O 1 g, KH2PO4 1 g and CaCO3 3 g. The cultivation conditions were 28° C., 300 rpm for 11 days. After 6 days of cultivations, 0.05 g/l AgNO3 or 0.4% of TritonX100 solution containing 0.05 g/l of CaCO3. The flasks without the said supplements were considered as controls for lipase inhibition treatment study. Cultivation was continued in the same conditions for 5 days more. The samples were taken after 7, 8 and 11 days of cultivations according to the general sampling protocols used in this invention and the results of sampling are shown here. The parallel cultivations were done with two concentrations of both algae debris and biowaste and the upper row of each test condition gave a result with higher concentration of both waste fractions.
# [1] = supplement added after 6 days, sample 11 day
compound,measurement,setting,value
O=[N+]([O-])[O-].[Ag+] [AgNO3],"Weight of Chloroform extract (g/l), 7 day","28° C., 300 rpm, supplement added after 6 days (0.05 g/l AgNO3 or 0.4% TritonX100 solution containing 0.05 g/l CaCO3), sample 7 day",7.7 g/L
same,"Quantity of TAGs g/l by Image J, 7 day","supplement added after 6 days, sample 7 day",4.8 g/L
same,"Quantity of TAGs g/l by Image J, 8 day","supplement added after 6 days, sample 8 day",4.8 g/L
same,"Quantity of TAGs g/l by Image J, 11 day",[1],4.8 g/L
same,"Weight of Chloroform extract (g/l), 11 day",[1],8.5 g/L

# Reference: US8697403B2, “Process and microorganisms for production of lipids from lignocellulosic wastes or residues” (Neste Oil Oyj, priority 2010, dated 2014)
